pEC50, pIC50: −log10 of the molar value.
Legend:
[1] = tested on: human STING pathway in THP1-ISG cells; experiment: STING human cell reporter assay; format: cell-based; conditions: 24 h, mean of at least three values
Protocol: STING Human Cell Reporter Assay
Agonism of the human STING pathway is assessed in THP1-ISG cells (Invivogen, cat #thp-isg) derived from human THP1 monocyte cell line by stable integration of an interferon regulatory factor (IRF)-inducible SEAP reporter construct. THP1-Blue ISG cells express a secreted embryonic alkaline phosphatase (SEAP) reporter gene under the control of an ISG54 minimal promoter in conjunction with five interferon (IFN)-stimulated response elements. As a result, THP1-Blue ISG cells allow the monitoring of IRF activation by determining the activity of SEAP. The levels of IRF-induced SEAP in the cell culture supernatant are readily assessed with alkaline phosphatase detection medium, a SEAP detection reagent. These cells are resistant to Zeocin. […] To run the assay, 60,000 cells were dispensed in 30 μL/well of a white, opaque bottom tissue culture treated 384-well plate.
Test compounds were added in a volume of 10 μL (1% DMSO final concentration). Compounds are initially prepared in 100% DMSO, spotted on an intermediate dilution plate and then diluted in media prior to transfer. The assay was incubated for 24 h at 37 °C, 5% CO2 then plates were centrifuged at 1200 rpm (120× g) for 5 min. After final incubation, 90 μL of alkaline phosphatase detection medium-substrate was added to each well of a new 384-well clear plate and 10 μL of the cell supernatant was transferred from the assay plate to the new alkaline phosphatase detection medium-plate using a Biomek FX and mixed 4 times.

[2] = tested on: IFN-β secretion in THP1-Blue ISG cells; experiment: Human interferon-β induction assay; format: cell-based; conditions: total cumulative IFN-β induction over the dose range tested (0.78 to 50 uM) in THP-1 cells
Protocol: Human Interferon-β Induction Assay
THP1-Blue ISG cells are used to measure the secretion of IFN-β into the culture supernatant following STING pathway activation. To run the assay, anti-IFN-β capture antibodies were coated on 96 well MultiArray plates (Mesoscale Discovery). After a one hour incubation, plates were washed and 50 μL supernatant from the STING human cell reporter assay plates or IFN-β standards were mixed with 20 μL Sulfotag-conjugated detection antibody in the coated plates. Plates were incubated, shaking for 2 h, washed, and read buffer was applied. Electrochemiluminescence was measured on the Sectorlmager.

[3] = tested on: CT26 colon carcinoma tumor; experiment: STING in vivo activity, mouse CT26 tumor model; conditions: CT26 tumor in Balb/c mice, 0.05 mg intratumorally every three days, three doses; for In vivo activity (cures): animals with no measurable tumor of 8
Protocol: For all studies, female Balb/c mice were obtained from Charles River Labs (Wilmington, Mass.) and used when they were 6-8 weeks of age and weighed approximately 20 g. All animals were allowed to acclimate and recover from any shipping-related stress for a minimum of 5 days prior to experimental use. Reverse osmosis chlorinated water and irradiated food (Laboratory Autoclavable Rodent Diet 5010, Lab Diet) were provided ad libitum, and the animals were maintained on a 12 h light and dark cycle. Cages and bedding were autoclaved before use and changed weekly. All experiments were carried out in accordance with The Guide for the Care and Use of Laboratory Animals and were approved by the Institutional Animal Care and Use Committee of Janssen R & D, Spring House, Pa. Each experimental group contained 8 mice. In vivo efficacy in a mouse CT26 tumor model was determined by implanting 500,000 CT26 colon carcinoma tumor cells subcutaneously into Balb/c mice and allowing tumors to establish to 100-300 mm^3. Compounds were injected intratumorally formulated in phosphate buffered saline in a volume of 0.1 ml per injection. Mice were administered 0.05 mg every three days for a total of three doses. Efficacy was measured as the percent tumor growth inhibition (TGI) calculated by the reduction in size of the Treated tumor volume (T) over the Control tumor volume (C) according to the following formula: ((C−T)/(C))*100 when all control animals were still on study. Cures were defined as the number of animals with no measurable tumor detected 10 tumor volume doubling times (TVDT) after the last dose was administered.

[4] = tested on: HBV infected PHH cells; experiment: Suppression of HBV virus in PHH cells using conditioned media from STING activated primary human PBMC; format: cell-based, hepatitis B virus; conditions: conditioned media from PBMCs stimulated at 20, 4, 0.8 μM for 48 h, 1:1 on HBV infected PHH cells; HBsAg 8 days later; two donors; read-out: EC50 (HBsAg production)
Source text: Suppression of HBV Virus in PHH Cells Using Conditioned Media from STING Activated Primary Human PBMC
Primary human hepatocytes can be infected with hepatitis B virus and during an established infection, will produce viral proteins such as HBsAg and HBeAg that can be detected by ELISA. Therapeutic treatment with compounds such as entecavir can suppress HBV reproduction, which can be measured by decreased viral protein production. (# of cells) 4×10^5 cells/well primary human hepatocytes (BioReclamation, Westbury, N.Y.) were dispensed into 500 μL/well of flat-bottom, tissue culture treated, 24-well plates. 24 h later, cells were infected with 30-75 moi of HBV. On the next day, the PHH were washed 3× and fresh maintenance media was added to the cells. Concurrently, PBMC were isolated as described previously. To stimulate the PBMC, 10,000,000 cells were dispensed into 400 μL/well of flat-bottom, tissue culture treated, 24-well plates. […] Cells were measured for activation marker upregulation using flow cytometery. […] Samples were analyzed on an Attune NxT flow cytometer (Thermo Fisher, Carlsbad, Calif.)
From the stimulated PBMC cultures, a portion of supernatant was reserved for cytokine detection by Luminex, as described previously. […] Following 96 h, the media was collected and HBsAg was measured.

[5] = target: STING (Homo sapiens, UniProt Q86WV6, H232R); experiment: STING SPA binding assay; conditions: displacement of [3H]-2′3′-cGAMP; mean of at least three values; read-out: hSTING SPA IC50
Protocol: The HIS tag is cleaved after purification and prior to biotinylation.
Test compounds (80 nL) were added with an acoustic dispenser (EDC Biosystems) in 100% DMSO for a final assay concentration of 1% DMSO. Plates were centrifuged for 1 min and incubated for 60 min at room temperature. Finally, (2 μL) polystyrene streptavidin SPA beads (PerkinElmer RPNQ0306) were added and plates were sealed and centrifuged for 1 min at room temperature. Plates were dark adapted for 2 h and read on a ViewLux (Perkin Elmer) for 12 min per plate.

STING, sequence (Q86WV6 139-379 H232R): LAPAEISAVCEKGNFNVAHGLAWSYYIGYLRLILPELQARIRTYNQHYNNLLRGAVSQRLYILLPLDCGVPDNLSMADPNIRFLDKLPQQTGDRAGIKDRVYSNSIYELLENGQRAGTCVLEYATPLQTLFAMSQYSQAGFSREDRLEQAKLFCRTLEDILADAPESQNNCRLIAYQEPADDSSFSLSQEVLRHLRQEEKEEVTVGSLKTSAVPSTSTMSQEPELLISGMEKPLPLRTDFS

Row | SMILES | pEC50 [1] | human IFN-β (ranking value) [2] | In vivo activity (% TGI) [3] [%] | In vivo activity (cures) [3] | pEC50 [4] | pIC50 [5]
1 | Nc1nc2c(ncn2C2OC3CO[P@](=O)(S)OC4C(CO[P@](=O)(S)OC2C3O)OC(n2cnc3c(N)ncnc32)C4F)c(=O)[nH]1 (single isomer, unassigned) [Compound 5] | 6.80 | 2737 | 93.3 | 7/8 | – | –
2 | B[P@]1(=O)OCC2OC(n3cnc4c(N)ncnc43)C(F)C2O[P@@](=O)(S)OCC2OC(n3cnc4c(=O)[nH]c(N)nc43)C(O1)C2OC (single isomer, unassigned) [Compound 14] | 6.35 | 4964 | – | – | – | –
3 | B[P@@]1(=O)OCC2OC(n3cnc4c(=O)[nH]c(N)nc43)C(O[P@](=O)(S)OCC3OC(n4cnc5c(N)ncnc54)C(F)C3O1)C2OC (single isomer, unassigned) [Compound 9] | 6.19 | 2240 | 89.8 | – | – | –
4 | B[P@]1(=O)OCC2OC(n3cnc4c(=O)[nH]c(N)nc43)C(O[P@@](B)(=O)OCC3OC(n4cnc5c(N)ncnc54)C(O)C3O1)C2O (single isomer, unassigned) [Compound 7] | 5.95 | 2260 | 94.3 | 5/8 | 10.07 | –
5 | B[P@]1(=O)OCC2OC(n3cnc4c(=O)[nH]c(N)nc43)C(O[P@@](B)(=O)OCC3OC(n4cnc5c(N)ncnc54)C(F)C3O1)C2OC (single isomer, unassigned) [Compound 12] | 6.66 | 3860 | – | – | – | > 8.00
6 | B[P@@]1(=O)OCC2OC(n3cnc4c(=O)[nH]c(N)nc43)C(O[P@](B)(=O)OCC3OC(n4cnc5c(N)ncnc54)C(F)C3O1)C2OC (single isomer, unassigned) [Compound 11] | 6.31 | 3840 | – | – | – | > 8.00
7 | Nc1nc2c(ncn2C2OC3COP(=O)(O)OC4C5OCC4(COP(=O)(O)OC2C3O)OC5n2cnc3c(N)ncnc32)c(=O)[nH]1 (stereo not drawn) [Compound 6] | 6.92 | 27 | 73.9 | 1/8 | – | –
8 | Nc1nc2c(ncn2C2OC3CO[P@@](=O)(S)OC4C(CO[P@@](=O)(S)OC2C3O)OC(n2cnc3c(N)ncnc32)C4F)c(=O)[nH]1 (single isomer, unassigned) [Compound 4] | 7.05 | 2247 | 93.7 | 6/8 | – | –
9 | B[P@@]1(=O)OCC2OC(n3cnc4c(=O)[nH]c(N)nc43)C(O[P@](B)(=O)OCC3OC(n4cnc5c(N)ncnc54)C(O)C3O1)C2O (single isomer, unassigned) [Compound 8] | 6.96 | 2054 | 95.3 | 4/8 | – | –
10 | B[P@]1(=O)OCC2OC(n3cnc4c(=O)[nH]c(N)nc43)C(O[P@](=O)(S)OCC3OC(n4cnc5c(N)ncnc54)C(F)C3O1)C2OC (single isomer, unassigned) [Compound 10] | 6.27 | 1321 | – | – | – | –
11 | B[P@@]1(=O)OCC2OC(n3cnc4c(N)ncnc43)C(F)C2O[P@](=O)(S)OCC2OC(n3cnc4c(=O)[nH]c(N)nc43)C(O1)C2OC (single isomer, unassigned) [Compound 13] | 6.23 | 2900 | – | – | – | –
